Assay results as given in US20150306108A1, “COMPOSITIONS OF ALDH1A1 INHIBITORS AND METHODS OF USE IN TREATING CANCER” (Indiana University Research & Technology Corporation, priority 2014, published 2015).
Like-named read-outs stand apart in the source and are kept apart here.

Assays:
ALDH3A1 = biological target: T1, ALDH3A1 (Homo sapiens, UniProt P30838); assay: ALDH3A1 benzaldehyde oxidation activity assay; type: biochemical; conditions: for IC50: Table 4, NI/NI(A) at 100 μM compound, read-out: IC50 in μM (SE) ALDH3A1
T1 construct: made in house
T1 sequence (P30838 1-453): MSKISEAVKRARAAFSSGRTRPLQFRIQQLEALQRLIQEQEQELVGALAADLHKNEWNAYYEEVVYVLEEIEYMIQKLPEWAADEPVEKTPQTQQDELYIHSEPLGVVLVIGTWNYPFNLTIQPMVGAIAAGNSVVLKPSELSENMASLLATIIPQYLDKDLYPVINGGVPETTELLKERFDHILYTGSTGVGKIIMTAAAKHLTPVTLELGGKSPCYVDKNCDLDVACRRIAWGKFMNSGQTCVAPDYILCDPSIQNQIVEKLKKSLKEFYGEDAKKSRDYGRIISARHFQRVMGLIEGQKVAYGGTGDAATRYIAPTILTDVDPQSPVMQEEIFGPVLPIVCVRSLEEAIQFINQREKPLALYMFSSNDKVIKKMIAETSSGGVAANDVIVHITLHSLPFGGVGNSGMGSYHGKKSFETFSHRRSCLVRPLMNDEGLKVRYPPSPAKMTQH
Protocol: Hits from the HTS were ordered from ChemDiv to determine if they had any effect on aldehyde oxidation and whether they were selective for ALDH1A1 compared to ALDH2 and ALDH3A1. Dehydrogenase activity of the three isoenzymes were assayed by monitoring the production of NADH at 340 nm (molar extinction coefficient of 6220 M^−1 cm^−1) on a Beckman DU-640 or Cary 300 Bio UV-Vis spectrophotometer for 2 to 3 minutes. For ALDH1A1 and ALDH2, the reaction contained 100-200 nM enzyme, 200 μM NAD^+, 100 μM propionaldehyde, and 1% DMSO in 50 mM Na^+ BES, pH 7.5 at room temperature. For ALDH3A1, the reaction contained 20 nM enzyme, 200 μM NAD^+, 300 μM benzaldehyde, and 1% DMSO in either 100 mM sodium phosphate or 50 mM Na^+ BES at pH 7.5 at room temperature.
For most compounds, 20 μM concentration was used for the selectivity assays. […] Following a 2 minute incubation of enzyme, compound, and NAD^+, the reaction was initiated by adding substrate. […] Data were fit to the four parameter EC50 equation using SigmaPlot (StatSys v12.3).
Dehydrogenase activity of purified recombinant ALDH1A1, ALDH1A2, ALDH1A3, ALDH1B1, ALDH2, and ALDH3A1 was assayed spectrophotometrically by monitoring the formation of NADH at 340 nm (molar extinction coefficient of 6220 M^−1 cm^−1) on a Beckman DU-640 or Cary 300 Bio UV-Vis spectrophotometer. Characterization of ALDH1A1 WT and ALDH1A1 G458N were performed by co-varying acetaldehyde and NAD^+ concentrations in reactions containing 150-300 nM enzyme, 50-500 μM or 20-200 μM acetaldehyde, and 50-500 μM NAD^+ in 50 mM sodium BES, pH 7.5 at 25° C. Reactions were initiated by adding enzyme. Selectivity of compounds for dehydrogenase activity of ALDH1A1, ALDH1A2, ALDH1A3, ALDH1B1 and ALDH2 were measured in a solution containing 100-200 nM enzyme, 200 μM NAD^+, 1% DMSO, and 100 μM propionaldehyde (non-saturating for all enzymes tested, except ALDH2) in 50 mM sodium BES. ALDH3A1 activity was measured under the following conditions: 25 nM enzyme, 200 μM NAD^+, 1% DMSO, and 300 μM benzaldehyde (˜KM) in either 100 mM sodium phosphate buffer, pH 7.5 or 50 mM sodium BES, pH 7.5. All assays were performed at 25° C. and were initiated by the addition of the aldehyde substrate following a 2 minute pre-incubation with compound and cofactor. Selectivity was initially tested using 20 μM compound, with ALDH1A1-selective modulators further tested using 100 μM compound. […] After a 2 minute pre-incubation with compound and NAD^+, all reactions were initiated by the addition of propionaldehyde. Data were fit to the four parameter EC50 equation using SigmaPlot (StatSys v12.3). The values represent the average of three independent experiments (each n=3). The mode of inhibition was determined via steady-state kinetics by co-varying inhibitor and substrate concentrations at fixed concentration of the second substrate. All reactions contained 100-150 nM ALDH1A1 and 1% DMSO in 50 mM sodium BES, pH 7.5 at 25° C. […] All data were fit to competitive, noncompetitive, uncompetitive, and mixed inhibition models using both single substrate-single inhibitor or tight binding inhibition programs in SigmaPlot (StatSys v12.3). The appropriate model was selected through analysis of goodness-of-fit and the residuals of those fits. The values represent the average of three independent experiments (each n=3) using at least two protein preps.
ALDH1A1, ALDH1A2, ALDH1A3, ALDH2, and ALDH3A1 were produced and purified as previously described. A highthroughput screen (HTS) of 64,000 compounds from the ChemDiv Corp. was performed to identify activators and inhibitors of ALDH1A1. The hydrolysis of para-nitrophenylacetate was used as a measure ALDH1A1 activity (see SM). Selectivity for closely related orthologs was tested at 20 and 100 μM using purified recombinant human ALDH1A1, ALDH1A2, ALDH1A3, ALDH2, and ALDH3A1. […]

ALDH1A2 = biological target: T2, ALDH1A2 (Homo sapiens, UniProt O94788); assay: biochemical; type: biochemical; conditions: for effect on aldehyde oxidation catalyzed by ALDH1A2: 100 μM compound (CM037: concentrations up to 100 μM)
T2 sequence (O94788 1-518): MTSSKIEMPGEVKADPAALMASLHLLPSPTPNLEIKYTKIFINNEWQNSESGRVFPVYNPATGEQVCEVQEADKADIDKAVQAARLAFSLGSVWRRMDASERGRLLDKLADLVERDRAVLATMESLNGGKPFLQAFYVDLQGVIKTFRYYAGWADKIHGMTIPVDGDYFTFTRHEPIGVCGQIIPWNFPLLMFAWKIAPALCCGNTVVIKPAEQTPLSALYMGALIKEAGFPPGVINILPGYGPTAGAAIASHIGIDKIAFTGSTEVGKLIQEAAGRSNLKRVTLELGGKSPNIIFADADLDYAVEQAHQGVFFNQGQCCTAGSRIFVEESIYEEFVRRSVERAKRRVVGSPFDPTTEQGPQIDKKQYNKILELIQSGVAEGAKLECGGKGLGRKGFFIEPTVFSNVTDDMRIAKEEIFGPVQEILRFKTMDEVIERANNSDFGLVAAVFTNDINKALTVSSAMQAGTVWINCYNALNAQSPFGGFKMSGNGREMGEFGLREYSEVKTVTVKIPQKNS

[1] = Table 4, NI/NI(A) at 100 μM compound, read-out: IC50 in μM (SE) ALDH1A2

SMILES | IC50 (ALDH3A1) [µM] | IC50 (ALDH1A2; [1]) [µM] | other results
CC(C)CCn1c(CN2CCOCC2)nc2c1c(=O)n(C)c(=O)n2C [CM056] | > 100 | > 100 | –
COc1ccc(C(=O)CSC#N)cc1OC [CM302] | – | – | effect on ALDH3A1 (ALDH3A1; 20 μM compound): To a limited degree; IC50 with ALDH3A1 compared to ALDH1A1 and ALDH2 (ALDH3A1; fold higher): greater than 10 fold
Cn1c(=O)c2[nH]cnc2n(C)c1=O [Theophylline, reference compound] | > 100 | – | IC50 (ALDH1A2): > 100 µM
CCOC(=O)CSc1nc2c(sc3ccccc32)c(=O)n1CCCN1CCCC1 [CM037, ethyl-2-((4-oxo-3-(3-(pryrrolidin-1-yl)propyl)-3,4-dihydrobenzo[4,5]thioeno[3,2-d]pyrimidin-2-yl)thio)acetate] | – | – | effect on ALDH3A1 (ALDH3A1; concentrations up to 100 μM): no effect; effect on aldehyde oxidation catalyzed by ALDH1A2 (ALDH1A2): no effect
CC(C)CCn1c(CN2CCN(C(=O)c3ccco3)CC2)nc2c1c(=O)n(C)c(=O)n2C [CM026] | > 100 | > 100 | effect on ALDH3A1 (ALDH3A1; 20 μM compound): no effect; effect on ALDH1A2 (ALDH1A2; 20 μM compound): no effect; effect on aldehyde oxidation catalyzed by ALDH1A2 (ALDH1A2): modestly increased
Cn1c(=O)c2c(nc(CN3CCC(C(N)=O)CC3)n2CCCc2ccccc2)n(C)c1=O [CM028] | > 100 | > 100 | –
Cn1c(=O)c2c(ncn2C)n(C)c1=O [Caffeine, reference compound] | > 100 | > 100 | –
